Experimental data taken from ChEMBL document CHEMBL1158863, “Oxidations of vincristine catalyzed by peroxidase and ceruloplasmin” (J Nat Prod, 1997).
Values after ≈ are worked out from the molar mass of the structure shown.

test system: CCRF-CEM; experiment: Cytotoxicity against human CCRF-CEM cells; type: functional, cell-based

| Structure (SMILES) | IC50 [µg/mL] |
| --- | --- |
| CC[C@H](O)C[C@@H]1CN(C=O)CCc2c([nH]c3ccccc23)[C@@](C(=O)OC)(c2cc3c(cc2OC)N(C=O)[C@H]2[C@@](O)(C(=O)OC)[C@H](OC(C)=O)[C@]4(CC)C=CCN5CC[C@]32[C@@H]54)C1 | 7.1 (≈ 8.44 µM) |
| CCC(=O)C[C@@H]1CN(C=O)CCc2c([nH]c3ccccc23)[C@@](C(=O)OC)(c2cc3c(cc2OC)N(C)[C@H]2[C@](O)(C(=O)OC)[C@H](OC(C)=O)[C@]4(CC)C=CCN5CC[C@]32[C@@H]54)C1 [CATHARININE] | 7.7 (≈ 9.33 µM) |
| CC[C@]1(O)C[C@@H]2CN(CCc3c([nH]c4ccccc34)[C@@](C(=O)OC)(c3cc4c(cc3OC)N(C)[C@H]3[C@@](O)(C(=O)OC)[C@H](OC(C)=O)[C@]5(CC)C=CCN6CC[C@]43[C@@H]65)C2)C1 [VINBLASTINE] | 0.03 (≈ 0.037 µM) |
| CC[C@]1(O)C[C@H]2CN(CCc3c([nH]c4ccccc34)[C@@](C(=O)OC)(c3cc4c(cc3OC)N(C=O)[C@H]3[C@@](O)(C(=O)OC)[C@H](OC(C)=O)[C@]5(CC)C=CCN6CC[C@]43[C@@H]65)C2)C1 [VINCRISTINE] | 0.06 (≈ 0.0727 µM) |
